Measurements reported in PubChem BioAssay AID1963430 (Molecular Pharmacology Branch, DTP, NCI, 2024).

System: 521955-158-R2-J5-PDC complex spheroid growth, % test/control
Experiment: Anticancer human tumor 521955-158-R2-J5-PDC patient-derived pancreatic carcinoma cell line growth inhibition [Asc]
Conditions: for IC50: curve of first compound; for viability, T/C: stronger effect = lower value
Procedure: Multicellular complex tumor spheroid response to apoptosis pathway targeting inhibitors Alrizomadlin, Pelcitoclax, and Dasminapant in combination with a variety of drugs and investigational agents in selected tumor cell lines
The MDM2 inhibitor alrizomadlin, the Bcl-2/Bcl-xL inhibitor pelcitoclax, and the IAPs inhibitor dasminapant were evaluated both individually and in combination with standard of care and investigational anticancer small molecules within a complex spheroid model of solid tumors. . Complex spheroids include a stromal component modeled by human endothelial cells (HUVEC) and fibroblasts modeled by human mesenchymal stem cells (MSCs). The concentration ranges selected for each drug and investigational agent were based upon clinically achievable concentrations if the clinical Cmax of the agent was known.
Compounds. The drugs and investigational agents: alrizomadlin (APG-115; NSC831270), pelcitoclax (APG-1252; NSC835773), dasminapant (APG-1387;NSC834197), TAK-243 (NSC785004), copanlisib (NSC809693), olaparib (NSC753686), talazoparib (NSC767125), cobimetinib (NSC 768068), eltanexor (KPT-8602, NSC 794443), abemaciclib (NSC 768073), sotorasib (NSC818433), adagrasib (NSC 831453), MRTX-1133 (NSC 836407), Iadademestat (ORY1001, NSC 806812), and RMC-4630 (NSC839698), were obtained from the NCI Developmental Therapeutics Program Chemical Repository. The FDA-approved anticancer drug set is available from the Developmental Therapeutics Program at https://dtp.cancer.gov/organization/dscb/obtaining/available plates.htm. […] The stock solutions were prepared in dimethyl sulfoxide (DMSO, Sigma-Aldrich, St. Louis, MO, cat. D2650) at 800-fold the tested concentration and stored at -70 degrees C prior to their use. All drugs and investigational agents were tested over a range starting from a high concentration at or near the clinical Cmax and decreasing in half-log increments. If the clinical Cmax for an agent had not been determined, the highest concentration tested was 10 microM.
The patient-derived cancer (PDC) cell lines include five colon adenocarcinomas: 186277-243-T-J2-PDC, 616215-338-R-J1-PDC, 439559-082-T-J2-PDC, 463943-066-T-J2-PDC, and 519858-162-T-J1-PDC; three pancreatic carcinomas: 323965-272-R-J2-PDC, 521955-158-R6-J3-PDC, and 521955-158-R2-J5-PDC; two uterine sarcomas: 327498-152-R-J2-PDC and 993429-296-R-J1-PDC; two rhabdomyosarcomas: 755483-174-R-J1-PDC and 772245-204-R-J1-PDC; two soft tissue sarcomas: 126254-015-R-J1-PDC and 494315-158-R-J1-PDC; two malignant fibrous histiocytomas: 317291-083-R-J1-PDC and 596521-263-R-J1-PDC; two breast carcinomas: 171881-019-R-J1-PDC and 885512-296-R-J2-PDC; and one ovarian carcinoma: 6556581-035-R-J-PDC were obtained from the NCI PDMR, (https://pdmr.cancer.gov). The established cell lines HSSY-2 synovial sarcoma (RRID:CVCL 8719), SYO-1 synovial sarcoma (RRID:CVCL_7146), MPNST malignant peripheral neural sheath tumor were obtained from the Sloan Kettering Institute. The following established cell lines were purchased from the American Type Culture Collection (ATCC, Manassas, VA), Sor the received from the NCI repository:, PANC-1 pancreatic carcinoma (CRL-1469, RRID:CVCL_0480), OVCAR-5 ovarian carcinoma (RRID:CVCL_1628), OVCAR-8 ovarian carcinoma (RRID:CVCL_1629), , MCF-7 breast carcinoma (CRL-12584, RRID:CVCL_0031), MDA-MB-231 breast carcinoma (CRL-12532, RRID:CVCL_0062), NCI-H1876 small cell lung carcinoma (CRL-5902, RRID:CVCL_1503), NCI-H510A small cell lung carcinoma (HTB-184, RRID:CVCL_1565), NCI-H1417 (CRL-5869, RRID:CVCL_1469), and NCI-H196 small cell lung carcinoma (CRL-5823, RRID:CVCL_1509). Dr. Peter Houghton (Greehey Children's Cancer Research Institute, University of Texas Health Science Center, San Antonio, TX) provided Rh-18 rhabdomyosarcoma (RRID:CVCL_1659). Pooled donor human umbilical vein endothelial cells (HUVEC, Lonza, cat. CC-2519) and human mesenchymal stem cells (hMSC, Lonza, cat. PT-2501) were purchased from Lonza (Walkersville, MD).
Cell Culture. […]

[1] = second compound 0.03 µM, first compound 0.00316 µM
[2] = second compound 0.03 µM, first compound 0.01 µM
[3] = second compound 0.03 µM, first compound 0.0316 µM
[4] = second compound 0.03 µM, first compound 0.1 µM
[5] = second compound 0.03 µM, first compound 0.316 µM
[6] = second compound 0.03 µM, first compound 1 µM
[7] = second compound 0.0949 µM, first compound 0.00316 µM
[8] = second compound 0.0949 µM, first compound 0.01 µM
[9] = second compound 0.0949 µM, first compound 0.0316 µM
[10] = second compound 0.0949 µM, first compound 0.1 µM
[11] = second compound 0.0949 µM, first compound 0.316 µM
[12] = second compound 0.0949 µM, first compound 1 µM
[13] = second compound 0.3 µM, first compound 0.00316 µM
[14] = second compound 0.3 µM, first compound 0.01 µM
[15] = second compound 0.3 µM, first compound 0.0316 µM
[16] = second compound 0.3 µM, first compound 0.1 µM
[17] = second compound 0.3 µM, first compound 0.316 µM
[18] = second compound 0.3 µM, first compound 1 µM
[19] = second compound 0.949 µM, first compound 0.00316 µM
[20] = second compound 0.949 µM, first compound 0.01 µM
[21] = second compound 0.949 µM, first compound 0.0316 µM
[22] = second compound 0.949 µM, first compound 0.1 µM
[23] = second compound 0.949 µM, first compound 0.316 µM
[24] = second compound 0.949 µM, first compound 1 µM
[25] = second compound 3 µM, first compound 0.00316 µM
[26] = second compound 3 µM, first compound 0.01 µM
[27] = second compound 3 µM, first compound 0.0316 µM
[28] = second compound 3 µM, first compound 0.1 µM
[29] = second compound 3 µM, first compound 0.316 µM
[30] = second compound 3 µM, first compound 1 µM
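Note: spheroids exposed to agents for 7 days before readout.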
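Throughout, for viability, T/C: 100% = DMSO vehicle control viability.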

| SMILES | IC50 (second compound 0.03 µM) | IC50 (second compound 0.0949 µM) | IC50 (second compound 0.3 µM) | IC50 (second compound 0.949 µM) | IC50 (second compound 3 µM) | viability, T/C [1] | viability, T/C [2] | viability, T/C [3] | viability, T/C [4] | viability, T/C [5] | viability, T/C [6] | viability, T/C [7] | viability, T/C [8] | viability, T/C [9] | viability, T/C [10] | viability, T/C [11] | viability, T/C [12] | viability, T/C [13] | viability, T/C [14] | viability, T/C [15] | further results |
| --- | --- | --- | --- | --- | --- | --- | --- | --- | --- | --- | --- | --- | --- | --- | --- | --- | --- | --- | --- | --- | --- |
| CCN1CCN(Cc2ccc(Nc3ncc(F)c(-c4cc(F)c5nc(C)n(C(C)C)c5c4)n3)nc2)CC1 + CCN1C(C(=O)NC23CCC(C(=O)O)(CC2)CC3)C(c2cccc(Cl)c2F)C2(C(=O)Nc3cc(Cl)ccc32)C12CCCCC2 | > 1000 nM | > 1000 nM | > 1000 nM | > 1000 nM | > 1000 nM | 87.5% | 88.8% | 57.3% | 77.4% | 72.4% | 89.4% | 101% | 79.8% | 62.8% | 56.3% | 73.2% | 105% | 106% | 99.1% | 65.6% | viability, T/C [16]: 60.9%; viability, T/C [17]: 83.8%; viability, T/C [18]: 110%; viability, T/C [19]: 119%; viability, T/C [20]: 102%; viability, T/C [21]: 107%; viability, T/C [22]: 79%; viability, T/C [23]: 92.3%; viability, T/C [24]: 98.2%; viability, T/C [25]: 142%; viability, T/C [26]: 172%; viability, T/C [27]: 126%; viability, T/C [28]: 89.6%; viability, T/C [29]: 107%; viability, T/C [30]: 139% |
| O=C(c1ccc(F)c(F)c1Nc1ccc(I)cc1F)N1CC(O)([C@@H]2CCCCN2)C1 + CCN1C(C(=O)NC23CCC(C(=O)O)(CC2)CC3)C(c2cccc(Cl)c2F)C2(C(=O)Nc3cc(Cl)ccc32)C12CCCCC2 | 77 nM | 39.4 nM | 165 nM | 156 nM | 620 nM | 65.8% | 56% | 62.5% | 45.1% | 37.2% | 29.1% | 80.7% | 80.1% | 51.1% | 51.7% | 43.1% | 35.4% | 64.5% | 83.3% | 85.2% | viability, T/C [16]: 60%; viability, T/C [17]: 40.9%; viability, T/C [18]: 33.1%; viability, T/C [19]: 93.3%; viability, T/C [20]: 91.3%; viability, T/C [21]: 82.4%; viability, T/C [22]: 57.3%; viability, T/C [23]: 37.8%; viability, T/C [24]: 38.1%; viability, T/C [25]: 107%; viability, T/C [26]: 102%; viability, T/C [27]: 80%; viability, T/C [28]: 71.8%; viability, T/C [29]: 61.8%; viability, T/C [30]: 42.5% |
